From patent publication US8513271B2, “Pyrimidine compounds as delta opioid receptor modulators” (Janssen Pharmaceutica, NV, priority 2009, dated 2013)
Like-named read-outs stand apart in the source and are kept apart here.

Assays:
[1] = target: T1, delta opioid receptor (Mus musculus, UniProt P32300); experiment: NG108-15, 24-well delta opioid receptor binding assay
T1 construct: NG108-15 cell membranes were purchased from Applied Cell Sciences (Rockville, Md.); host or cells: NG108-15 cell membranes
T1 sequence (P32300 whole entry): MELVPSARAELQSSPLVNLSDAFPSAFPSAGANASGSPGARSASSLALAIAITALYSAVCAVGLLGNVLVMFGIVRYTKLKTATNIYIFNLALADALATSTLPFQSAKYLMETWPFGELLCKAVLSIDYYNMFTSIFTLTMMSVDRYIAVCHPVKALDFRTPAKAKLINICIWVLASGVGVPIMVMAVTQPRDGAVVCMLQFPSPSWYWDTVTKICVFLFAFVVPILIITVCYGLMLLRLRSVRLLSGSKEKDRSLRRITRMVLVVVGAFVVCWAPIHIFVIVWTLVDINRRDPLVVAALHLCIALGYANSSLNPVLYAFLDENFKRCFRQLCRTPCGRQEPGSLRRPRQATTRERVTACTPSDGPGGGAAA

[2] = target: T2, delta opioid receptor (Rattus norvegicus, UniProt P33533); experiment: Rat brain delta opioid receptor binding assay; details: rat forebrain, [3H]naltrindole ligand; read-out: δ-binding (Naltrindole ligand) Ki
T2 construct: the forebrains were homogenized in Tris buffer in a Teflon®-glass homogenizer; from tissue; host or cells: forebrain of male Wistar rats, particulate (membrane) preparation
T2 sequence (P33533 whole entry): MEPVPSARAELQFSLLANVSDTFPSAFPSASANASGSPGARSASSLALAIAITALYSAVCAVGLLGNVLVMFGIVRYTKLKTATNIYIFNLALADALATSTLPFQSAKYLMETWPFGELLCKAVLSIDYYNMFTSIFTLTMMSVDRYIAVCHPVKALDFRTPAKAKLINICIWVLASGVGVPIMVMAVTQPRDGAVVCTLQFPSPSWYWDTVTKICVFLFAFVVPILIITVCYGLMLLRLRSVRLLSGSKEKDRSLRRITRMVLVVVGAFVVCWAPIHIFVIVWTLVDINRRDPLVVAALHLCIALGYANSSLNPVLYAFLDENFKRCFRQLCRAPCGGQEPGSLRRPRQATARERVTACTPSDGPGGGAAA

[3] = target: T1, delta opioid receptor; experiment: [35S]GTPγS binding assay in NG108-15 cell membranes (delta opioid functional assay), 200 nM screen; format: biochemical; details: for GTPγS δ-RelEfficacy @200 nM: 200 nM test compound, relative to calculated max of SNC80 dose response curve; for GTPγS δ-RelEfficacy @200 nM / EC50 / GTPγS δ-opioid receptor Rel Efficacy: NG108-15 cell membranes; for GTPγS δ-RelEfficacy @200 nM / EC50: averages if tested more than once; for GTPγS δ-opioid receptor Rel Efficacy: relative efficacy from dose response
[4] = target: hMOR (mu opioid receptor) (Homo sapiens, UniProt P35372); experiment: [35S]GTPγS binding assays in CHO-hMOR cell membranes (mu opioid functional assay); format: biochemical; details: for inhibition at 10 µM: read-out: GTPγS μ-opioid receptor % Inh @10 μM
Chain of hMOR (mu opioid receptor) (P35372 whole entry, looked up): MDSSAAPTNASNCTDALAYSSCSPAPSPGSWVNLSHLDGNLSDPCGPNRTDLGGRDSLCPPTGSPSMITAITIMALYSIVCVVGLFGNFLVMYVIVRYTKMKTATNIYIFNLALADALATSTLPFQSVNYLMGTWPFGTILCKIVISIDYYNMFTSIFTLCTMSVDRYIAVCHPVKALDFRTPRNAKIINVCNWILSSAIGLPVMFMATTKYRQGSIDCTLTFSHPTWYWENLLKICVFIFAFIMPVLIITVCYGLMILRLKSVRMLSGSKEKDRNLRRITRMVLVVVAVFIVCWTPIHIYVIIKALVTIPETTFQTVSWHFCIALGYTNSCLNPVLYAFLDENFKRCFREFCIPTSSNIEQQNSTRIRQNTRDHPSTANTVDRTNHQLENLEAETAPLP

[5] = target: T3, mu opioid receptor (Rattus norvegicus, UniProt P33535); experiment: Rat brain mu opioid receptor binding assay; details: rat forebrain, [3H]DAMGO ligand
T3 construct: the forebrains were homogenized in Tris buffer in a Teflon®-glass homogenizer; from tissue; host or cells: forebrain of male Wistar rats, particulate (membrane) preparation
T3 sequence (P33535 whole entry): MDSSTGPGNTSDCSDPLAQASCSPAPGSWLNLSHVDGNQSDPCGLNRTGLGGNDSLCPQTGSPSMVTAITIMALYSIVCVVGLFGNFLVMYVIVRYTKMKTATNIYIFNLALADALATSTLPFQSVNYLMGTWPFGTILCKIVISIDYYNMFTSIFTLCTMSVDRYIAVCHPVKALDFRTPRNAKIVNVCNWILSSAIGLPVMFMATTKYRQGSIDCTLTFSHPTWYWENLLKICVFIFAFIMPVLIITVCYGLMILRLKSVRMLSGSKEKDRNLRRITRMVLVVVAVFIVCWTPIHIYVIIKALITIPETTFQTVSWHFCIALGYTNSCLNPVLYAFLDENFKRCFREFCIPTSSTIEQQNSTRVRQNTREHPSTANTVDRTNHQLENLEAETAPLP

[6] = [3H]Naltrindole ligand, NG108-15 cell membranes, read-out: δ-binding NG108 cell membrane Ki
[7] = GTPγS δ-opioid receptor EC50 (μM)
[8] = read-out: GTPγS δ-opioid receptor EC50

SMILES | Ki [1, 6] [nM] | GTPγS δ-RelEfficacy @200 nM [3] | GTPγS δ-opioid receptor Rel Efficacy [3] | EC50 [3, 8] [µM] | further results
COc1ccc(Oc2nc(-c3cncnc3)ncc2NCC2COCCN2)cc1 (racemic) [Cpd 278] | 1.64 | 0.263 |  |  | Ki [2]: 999 nM
COc1ccc(Oc2nc(-c3cncc(C#N)c3)ncc2N2CCNC(C)C2)cc1 (racemic) [Cpd 343] |  | 0.985 | 1.105 |  | EC50 [3, 7]: 0.001 µM; EC50 [4]: 1980 nM; inhibition at 10 µM [4]: 7.29%
COc1ccc(-c2ncc(NC[C@@H]3CCCN3)c(Oc3ccc(O)cc3)n2)cn1 [Cpd 59] | 1.54 |  | 1.0063 | 0.433 | Ki [2]: 0.954 nM; Ki ([5]; read-out: μ-binding Ki): 1610 nM; inhibition at 10 µM ([3]; read-out: GTPγS δ-opioid receptor % Inh @10 μM): 1.48%
Fc1cncc(-c2ncc(NC[C@@H]3CCCN3)c(Oc3ccc(OCC(F)(F)F)cc3)n2)c1 [Cpd 124] |  |  |  |  | Ki [1]: 0.3 nM; Ki [2]: 126 nM
Clc1ccc(Oc2nc(-c3cncnc3)ncc2NC[C@@H]2CCCN2)cc1 [Cpd 130] | 2 | 0.245 |  |  | 
COc1ccc(Oc2nc(-c3cncc(F)c3)ncc2NC[C@@H]2CCCN2)cc1F [Cpd 131] | 0.2 | 0.819 | 1.063 | 0.076 | 
COc1ccc(Oc2nc(-c3cncnc3)ncc2NC[C@@H]2CCCN2)cc1F [Cpd 133] | 0.4 | 0.755 | 1.041 | 0.028 | 
N#Cc1cccc(Oc2nc(-c3cccnc3)ncc2NC[C@@H]2CCCN2)c1 [Cpd 135, 3-{2-Pyridin-3-yl-5-[(pyrrolidin-2-(S)-ylmethyl)-amino]-pyrimidin-4-yloxy}-benzonitrile] |  |  |  | 1.38 | Ki [1]: 2 nM
N#Cc1ccc(Oc2nc(-c3cccnc3)ncc2NC[C@@H]2CCCN2)cc1 [Cpd 136] | 7 |  | 0.789 | 9 | 
N#Cc1ccc(Oc2nc(-c3cccnc3)ncc2NC[C@@H]2CCCN2)cc1F [Cpd 137] | 9 |  |  | > 10 | 
O=C(Nc1ccc(Oc2nc(-c3cccnc3)ncc2NC[C@@H]2CCCN2)cc1)C1CC1 [Cpd 138, Cyclopropanecarboxylic acid (4-{2-pyridin-3-yl-5-[(pyrrolidin-2-(S)-ylmethyl)-amino]-pyrimidin-4-yloxy}-phenyl)-amide] |  |  |  | 1.34 | Ki [1]: 4 nM
CC(C)Oc1ccc(Oc2nc(-c3cncc(C#N)c3)ncc2NC[C@@H]2CCCN2)cc1 [Cpd 139] | 2 |  | 1.118 | 2.27 | 
CC(C)Oc1ccc(Oc2nc(-c3cncnc3)ncc2NC[C@@H]2CCCN2)cc1 [Cpd 140] | 8 | 0.137 |  |  | 
CC(C)Oc1ccc(Oc2nc(-c3cccnc3)ncc2NC[C@@H]2CCCN2)cc1 [Cpd 141] | 3 | 0.149 |  |  | 
COc1ccc(Oc2nc(-c3cc(F)cc(C#N)c3)ncc2NC[C@@H]2CCCN2)cc1 [Cpd 142] | 0.2 | 0.931 | 1.006 | 0.029 | 
N#Cc1cncc(-c2ncc(NC[C@@H]3CCCN3)c(Oc3ccc(CO)cc3)n2)c1 [Cpd 143] | 1 |  | 1.066 | 0.69 | 
OCc1ccc(Oc2nc(-c3cncnc3)ncc2NC[C@@H]2CCCN2)cc1 [Cpd 144] |  | 0.191 |  |  | Ki [1]: 7 nM
OCc1ccc(Oc2nc(-c3cccnc3)ncc2NC[C@@H]2CCCN2)cc1 [Cpd 145] | 5 |  | 1.180 | 4.02 | 
N#Cc1cncc(-c2ncc(NC[C@@H]3CCCN3)c(Oc3ccc(F)cc3)n2)c1 [Cpd 146] | 0.4 |  | 1.197 | 0.387 | 
Cc1ccc(Oc2nc(-c3cncc(C#N)c3)ncc2NC[C@@H]2CCCN2)cc1 [Cpd 147] |  |  | 1.077 |  | Ki [1]: 0.4 nM; Ki ([5]; μ-binding Ki): 438 nM; EC50 [3, 7]: 0.051 µM
Cc1ccc(Oc2nc(-c3cncnc3)ncc2NC[C@@H]2CCCN2)cc1 [Cpd 148] | 1 | 0.411 | 1.052 | 0.158 | 
Cc1ccc(Oc2nc(-c3cccnc3)ncc2NC[C@@H]2CCCN2)cc1 [Cpd 149] | 1 | 0.403 | 1.026 | 0.236 | 
CSc1ccc(Oc2nc(-c3cncc(C#N)c3)ncc2NC[C@@H]2CCCN2)cc1 [Cpd 150] |  | 0.801 | 1.093 |  | Ki [1]: 0.3 nM; EC50 [3, 7]: 0.033 µM
CSc1ccc(Oc2nc(-c3cncnc3)ncc2NC[C@@H]2CCCN2)cc1 [Cpd 151] | 1 | 0.704 | 1.121 | 0.119 | 

SMILES | Ki [1, 6] [nM] | GTPγS δ-RelEfficacy @200 nM [3] | GTPγS δ-opioid receptor Rel Efficacy [3] | EC50 [3, 8] [µM] | further results
CSc1ccc(Oc2nc(-c3cccnc3)ncc2NC[C@@H]2CCCN2)cc1 [Cpd 152] | 0.4 | 0.607 | 1.083 | 0.07 | 
COCc1ccc(Oc2nc(-c3cncc(C#N)c3)ncc2NC[C@@H]2CCCN2)cc1 [Cpd 153] | 1 | 0.454 | 1.120 | 0.193 | 
COCc1ccc(Oc2nc(-c3cncnc3)ncc2NC[C@@H]2CCCN2)cc1 [Cpd 154] |  | 0.164 |  |  | Ki [1]: 9 nM
COCc1ccc(Oc2nc(-c3cccnc3)ncc2NC[C@@H]2CCCN2)cc1 [Cpd 155] |  | 0.170 |  |  | Ki [1]: 5 nM
Oc1ccc(Oc2nc(-c3cncnc3)ncc2NC[C@@H]2CCCN2)cc1 [Cpd 156, 4-{5-[(Pyrrolidin-2-(S)-ylmethyl)-amino]-[2,5]bipyrimidinyl-4-yloxy}-phenol] |  |  |  | 0.177 | Ki [1]: 1 nM
CCN(CC)C(=O)c1cccc(Oc2nc(-c3cccnc3)ncc2NC[C@@H]2CCCN2)c1 [Cpd 157] | 40 | 0.213 |  |  | 
O=C(c1cccc(Oc2nc(-c3cccnc3)ncc2NC[C@@H]2CCCN2)c1)N1CCCC1 [Cpd 166] |  | 0.169 |  |  | Ki [1]: 27 nM
O=C(c1cccc(Oc2nc(-c3cccnc3)ncc2NC[C@@H]2CCCN2)c1)N1CCCCC1 [Cpd 167] | 21 | 0.328 |  |  | 
O=C(c1cccc(Oc2nc(-c3cccnc3)ncc2NC[C@@H]2CCCN2)c1)N1CCOCC1 [Cpd 168] | 50 | 0.300 |  |  | 
COc1ccc(Oc2nc(-c3cncc(SC)c3)ncc2NC[C@@H]2C[C@@H](F)CN2)cc1 [Cpd 234] |  | 0.847 | 0.987 |  | EC50 [3, 7]: 0.034 µM; inhibition at 10 µM [4]: 7.29%
COc1ccc(Oc2nc(-c3cccnc3)ncc2N[C@H]2CCCNC2)cc1 [Cpd 236] |  | 1.026 | 1.042 |  | EC50 [3, 7]: 0.017 µM; inhibition at 10 µM [4]: 6.2%
COc1ccc(Oc2nc(-c3cccnc3)ncc2N[C@H]2CCNC2)cc1 [Cpd 237] |  |  |  |  | GTPγS μ-opioid receptor % Inh @10 μM ([4]; 10 μM, CHO-hMOR cell membranes, inhibition of agonist-stimulated GTPγS binding): 3.524%
COc1ccc(Oc2nc(-c3cncc(OC)c3)ncc2N[C@H]2CCCNC2)cc1 [Cpd 245] |  |  | 1.095 |  | EC50 [3, 7]: 0.0127 µM; inhibition at 10 µM [4]: 4.26%
COc1ccc(Oc2nc(-c3cncc(SC)c3)ncc2N[C@H]2CCCNC2)cc1 [Cpd 252] |  |  | 1.007 |  | EC50 [3, 7]: 0.025 µM; inhibition at 10 µM [4]: 2.48%
COc1ccc(Oc2nc(-c3cncc(SC)c3)ncc2N[C@H]2CCNC2)cc1 [Cpd 255] |  |  | 0.997 |  | EC50 [3, 7]: 0.0464 µM; inhibition at 10 µM [4]: 17.1%
COc1ccc(Oc2nc(-c3cncc(OC)c3)ncc2N[C@H]2CCNC2)cc1 [Cpd 256] |  |  | 1.004 |  | EC50 [3, 7]: 0.034 µM; inhibition at 10 µM [4]: 6.2%
COc1ccc(Oc2nc(-c3cncc(F)c3)ncc2NC[C@H]2COCCN2)cc1 [Cpd 281] | 1 | 0.221 |  |  | 
COc1ccc(Oc2nc(-c3cncc(C#N)c3)ncc2NC[C@@H](N)CC(C)C)cc1 [Cpd 294] | 6 |  |  | > 10 | 
COc1ccc(Oc2nc(-c3cncc(C#N)c3)ncc2NC[C@H]2C[C@H](N)C2)cc1 [Cpd 301] |  |  | 1.085 |  | Ki [1]: 0.5 nM; Ki ([5]; μ-binding Ki): 658 nM; EC50 [3, 7]: 0.087 µM
COc1ccc(Oc2nc(-c3cncnc3)ncc2NC[C@H]2C[C@H](N)C2)cc1 [Cpd 302] | 1 | 0.393 |  |  | 
COc1ccc(Oc2nc(-c3cncnc3)ncc2NC2CC(N)C2)cc1 (centres unmarked) [Cpd 304] |  | 0.228 |  |  | Ki [1]: 2 nM
COc1ccc(Oc2nc(-c3cncc(SC)c3)ncc2N2CCNCC2)cc1 [Cpd 341] |  |  | 0.788 |  | EC50 [3, 7]: 0.041 µM; inhibition at 10 µM [4]: 0%
COc1ccc(Oc2nc(-c3cncc(C#N)c3)ncc2N2CCNC[C@@H]2C)cc1 [Cpd 345] |  | 0.989 | 1.089 |  | EC50 [3, 7]: 0.001 µM; EC50 [4]: 1930 nM; inhibition at 10 µM [4]: 0%
